Literature values in US10392474B2, “Anionic linear polyglycerol derivatives, a method for manufacturing and applications” (FREIE UNIVERSITAET BERLIN, priority 2015, dated 2019).

Conditions: after subcutaneous administration

CO[C@H]1O[C@H](COS(=O)(=O)O)[C@@H](O[C@@H]2O[C@@H](C(=O)O)[C@@H](O[C@H]3O[C@H](COS(=O)(=O)O)[C@@H](O[C@@H]4O[C@H](C(=O)O)[C@@H](O[C@H]5O[C@H](COS(=O)(=O)O)[C@@H](O)[C@H](O)[C@H]5NS(=O)(=O)O)[C@H](O)[C@H]4O)[C@H](OS(=O)(=O)O)[C@H]3NS(=O)(=O)O)[C@H](O)[C@H]2OS(=O)(=O)O)[C@H](O)[C@H]1NS(=O)(=O)O [fondaparinux]
half-life: 17 h
